Three compounds from patent US20240239786A1, “COMPOSITIONS AND METHODS FOR THE TREATMENT AND PREVENTION OF CANCER” (Yale University, priority 2021, published 2024) can be followed below.

For experiment [1], the system named is T cells. As to the kind of experiment: PBMC T cell co-culture with PEO4 cells activated by CD3-CD28 beads. The format is cell-based. The following applies: PBMCs co-cultured with treated PEO4 cells. The source says: FIG. 23 depicts representative effects of DB4 or triapine on peripheral blood mononuclear cells (PBMCs) containing T cells that were co-cultured with BRCA-mutated PEO1 and BRCA-wild type PEO4 cells and activated by CD3-CD28 beads. PEO1 cells suppressed CD8-positive activated T cells.
FIG. 24 depicts representative effects of DB4 or triapine on peripheral blood mononuclear cells (PBMCs) containing T cells that were co-cultured with BRCA-mutated PEO1 and BRCA-wild type PEO4 cells and activated by CD3-CD28 beads. PEO1 cells increased PD1 and LAG3-positive exhausted T cells.
Further experiments were conducted using PBMCs containing T cells that were co-cultured with PEO1 or PEO4 cells and activated by CD3-CD28 beads (FIG. 23). […] Both DB4 and triapine are RNR inhibitors. As such, although not bound by any particular theory, it was hypothesized that DB4 turned BRCA-wild type EOC into immunogenic “hot” tumors. DB4 promoted an increase in tumor neoantigens and the recruitment of tumor infiltrating lymphocytes (TILs) to tumor stroma, which enabled an effective antitumor response elicited by immune checkpoint inhibitors.

Experiment [2] has as its system PEO4ip xenografts. The experiment can be described thus: Survival of mice bearing peritoneal PEO4ip xenografts. As to conditions: for effect on survival time of mice: olaparib 50 mg/kg, DB4 10 mg/kg, i.p. daily for 4 weeks. The class given is in vivo, SCID-Beige mice. The method, then: SCID-Beige mice implanted ip with PEO4ip cells were treated daily (qd) with DB4 (10 mg/kg), olaparib (50 mg/kg), and the DB4-olaparib combination for 4 weeks. Kaplan Meier analysis was performed to determine the survival time of mice following treatments. Statistical significance was determined by the Mantel-Cox test comparing the control with each treatment group (N=4-5). […] DB4 given every two days (q2d) in the DB4-olaparib combination for 4 or 6 weeks (n=4-5). […] NOD CRISPR Prkdc Il2r Gamma (NCG) mice implanted sc with SKOV3 cells were treated as described in FIG. 10C for 4 weeks during which the tumor size was measured. Statistical significance was determined by the Wilcoxon matched-pairs signed test comparing the control with each treatment group and comparing between treatment groups. Data are means±SE (N=4-5). *, p<0.05; **, p<0.01.
First, the efficacy of the combination of DB4 and olaparib to treat PEO4ip tumor xenografts, as determined by the median survival time, was evaluated in a peritoneal mouse model (Lin Z P et al., 2018, PLOS One, 13:e0207399). Mice were implanted intraperitoneally (i.p.) with PEO4ip cells and then treated i.p. with olaparib, DB4, or both drugs in combination daily for 4 weeks. The survival endpoint (a 50% increase in abdominal circumference) for vehicle-treated control mice ranged from 55-65 days (8-9 weeks).
Next, these experiments were repeated with modified treatment schedules of DB4 given every two day (q2d) for 4-week and 6-week treatment periods.
Five to six weeks old female SCID-Beige mice were purchased from Envigo (Indianapolis, IN). PEO4ip cells (Lin Z P et al., 2018, PLOS One, 13:e0207399) suspended in 100 μL serum-free medium were implanted i.p. (1×10^7 cells per mouse). Six to eight weeks old female NCG (NOD-Prkdcem26Cd52Il2rgem26Cd22/NjuCrl) mice were purchased from Charles River (Wilmington, MA). SKOV3 cells suspended in 100 μL serum-free medium were mixed with 50 μL Matrigel (BD Biosciences) and implanted s.c. in the right dorsal medial area (1×10^7 cells per mouse). […] The abdominal circumference of PEO4ip-bearing mice reached a 50% increase about 50-70 days.
Mice were randomly assigned to treatment groups (n=4-5) and drug treatment was initiated 3-7 days after tumor implantation. The control group of mice received i.p. treatment with vehicle (2% DMSO) and treatment groups of mice received i.p. treatment for a period of 4 or 6 weeks as follows: Olaparib (50 mg/kg) once daily for 5 consecutive days per week; DB4 (10 mg/kg) once daily for 5 consecutive days (M, T, W, R, F) per week or once every 2 days (M, W, F) per week; The combined treatment with olaparib and DB4 at the dose and schedule described above.
The progression of PEO4ip tumor xenografts in mice was evaluated by measuring the size of the circumference at the lower one-third of the abdominal area with the mouse head positioned upward. A 50% increase in the abdominal circumference was defined as the endpoint of survival as described previously (Lin Z P et al., 2018, PLOS One, 13:e0207399). […] Kaplan-Meier survival curve, median survival time, and statistical analysis was performed using the Prism software (GraphPad). Comparisons were made by the Mantel-Cox test comparing the control with each treatment group. The growth of SKOV3 tumor xenografts was evaluated by the size of s.c. tumor using a digital caliper. Tumor volumes were calculated using the formula: length×width2/2. Statistical difference in the tumor size was determined by the Wilcoxon matched-pairs signed test comparing the control with each treatment group and comparing between treatment groups. Body weights of mice were measured on every treatment day before administration and on the same schedule as tumor measurements during the treatment period.

[3] abbreviates: Table 2: olaparib 50 mg/kg qd, DB4 10 mg/kg qd, i.p., treated daily.
Where [4] appears, read: Table 3: single agents, olaparib 50 mg/kg qd, DB4 10 mg/kg q2d.

As for `C=CCn1c(SCc2cccc(Cl)c2)nnc1C1CCN(Cc2nc3ccccc3s2)CC1` [DB4, 2-[(4-{4-allyl-5-[(3-chlorobenzyl)thio]-4H-1,2,4-triazol-3-yl}-1-piperidinyl)methyl]-1,3-benzothiazole], the “T cell activation and exhaustion in co-culture with drug-treated PEO4 cells” value in experiment [1] was “suppressing T cell activation and enhancing T cell exhaustion”. Further, the figures for the “Median Survival Time” value in experiment [2] (setting [3]) and in experiment [2] (setting [4]) were 67 days and 56 days, respectively. Moreover, in experiment [2], the “effect on survival time of mice” value is on record as “no effects on the survival time of mice”.
As for `O=C(c1cc(Cc2n[nH]c(=O)c3ccccc23)ccc1F)N1CCN(C(=O)C2CC2)CC1` [olaparib, reference compound], the figures for the “Median Survival Time” value in experiment [2] (setting [3]) and in experiment [2] (setting [4]) were 66 days and 55 days, respectively. The “effect on survival time of mice” value in experiment [2] is recorded as “no effects on the survival time of mice”.
Regarding `NC(=S)NN=Cc1ncccc1N` [triapine, 3-aminopyridine-2-carboxaldehyde-thiosemicarbazone, reference compound], the “T cell activation and exhaustion in co-culture with drug-treated PEO4 cells” value in experiment [1] is “suppressing T cell activation and enhancing T cell exhaustion”.
